Reference: PubChem BioAssay (NCI)
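Compound exposure: 48 hours, 5 concentrations, 96-well plates. TGI denotes the concentration required for complete inhibition of growth.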

Key:
Assay in all cases: DTP human tumour cell line panel, 48 h
[1] = system: K-562 leukemia
[2] = system: LOX IMVI melanoma
[3] = system: COLO 205 colon
[4] = system: SW-620 colon
[5] = system: BT-549 breast
[6] = system: 786-0 renal
[7] = system: NCI/ADR-RES ovarian
[8] = system: SK-MEL-5 melanoma
[9] = system: NCI-H23 lung
[10] = system: NCI-H460 lung
[11] = system: HOP-92 NSCLC
[12] = system: HCT-116 colon
[13] = system: HCC-2998 colon
[14] = system: UACC-257 melanoma
[15] = system: IGROV1 ovarian
[16] = system: PC-3 prostate
[17] = system: A498 renal
[18] = system: M14 melanoma
[19] = system: SNB-75 CNS
[20] = system: MDA-MB-231 breast
[21] = system: NCI-H226 lung
[22] = system: HCT-15 colon
[23] = system: MCF7 breast
[24] = system: SK-MEL-28 melanoma
[25] = system: MOLT-4 leukemia
[26] = system: SF-295 CNS
[27] = system: HT29 colon
[28] = system: DU-145 prostate
[29] = system: TK-10 renal
[30] = system: RXF 393 renal
[31] = system: CCRF-CEM leukemia
[32] = system: UO-31 renal
[33] = system: SR leukemia
[34] = system: SN12C renal
[35] = system: T-47D breast
[36] = system: CAKI-1 renal
[37] = system: MDA-N
[38] = system: SK-OV-3 ovarian
[39] = system: OVCAR-4 ovarian
[40] = system: OVCAR-5 ovarian
[41] = system: UACC-62 melanoma
[42] = system: NCI-H522 lung
[43] = system: RPMI-8226 leukemia
[44] = system: SNB-19 CNS
[45] = system: OVCAR-3 ovarian
[46] = system: U251 CNS
[47] = system: SK-MEL-2 melanoma
[48] = system: ACHN renal
[49] = system: A549 NSCLC
[50] = system: KM12 colon
[51] = system: HOP-62 NSCLC
[52] = system: HS 578T breast
[53] = system: EKVX NSCLC
[54] = system: MALME-3M melanoma
[55] = system: SF-268 CNS
[56] = system: MDA-MB-435
[57] = system: OVCAR-8 ovarian
[58] = system: SF-539 CNS
[59] = system: HL-60(TB) leukemia

Compound: O=C1C(c2c(O)[nH]c3ccc(S(=O)(=O)NCCO)cc23)=Nc2ccccc21
- TGI [1]: 69.4 µM
- TGI [2]: > 100 µM
- TGI [3]: > 100 µM
- TGI [4]: > 100 µM
- TGI [5]: 18.7 µM
- TGI [6]: 28.9 µM
- TGI [7]: > 100 µM
- TGI [8]: > 100 µM
- TGI [9]: > 100 µM
- TGI [10]: > 100 µM
- TGI [11]: 82.4 µM
- TGI [12]: 16.2 µM
- TGI [13]: > 100 µM
- TGI [14]: > 100 µM
- TGI [15]: > 100 µM
- TGI [16]: 54.3 µM
- TGI [17]: 9.07 µM
- TGI [18]: > 100 µM
- TGI [19]: 7.43 µM
- TGI [20]: 31.6 µM
- TGI [21]: > 100 µM
- TGI [22]: > 100 µM
- TGI [23]: 6.53 µM
- TGI [24]: > 100 µM
- TGI [25]: 36.6 µM
- TGI [26]: > 100 µM
- TGI [27]: > 100 µM
- TGI [28]: 46.8 µM
- TGI [29]: 42.4 µM
- TGI [30]: 18.9 µM
- TGI [31]: > 100 µM
- TGI [32]: > 100 µM
- TGI [33]: 21.6 µM
- TGI [34]: > 100 µM
- TGI [35]: 50.4 µM
- TGI [36]: > 100 µM
- TGI [37]: > 100 µM
- TGI [38]: 20.3 µM
- TGI [39]: 14.5 µM
- TGI [40]: > 100 µM
- TGI [41]: > 100 µM
- TGI [42]: 4.73 µM
- TGI [43]: > 100 µM
- TGI [44]: > 100 µM
- TGI [45]: 18.3 µM
- TGI [46]: 12.9 µM
- TGI [47]: 17.9 µM
- TGI [48]: > 100 µM
- TGI [49]: > 100 µM
- TGI [50]: 2.2 µM
- TGI [51]: > 100 µM
- TGI [52]: > 100 µM
- TGI [53]: > 100 µM
- TGI [54]: > 100 µM
- TGI [55]: 51 µM
- TGI [56]: > 100 µM
- TGI [57]: > 100 µM

Compound: Cc1c(O)c(=O)ccn1CCc1ccc(O)cc1
- TGI [1]: > 100 µM
- TGI [2]: 53.9 µM
- TGI [3]: > 100 µM
- TGI [4]: > 100 µM
- TGI [58]: 62.5 µM
- TGI [5]: > 100 µM
- TGI [6]: 27.8 µM
- TGI [7]: 59.5 µM
- TGI [8]: 51.7 µM
- TGI [9]: > 100 µM
- TGI [10]: 52.9 µM
- TGI [11]: 57 µM
- TGI [12]: > 100 µM
- TGI [14]: 54.8 µM
- TGI [16]: > 100 µM
- TGI [18]: 53 µM
- TGI [20]: 50.3 µM
- TGI [22]: > 100 µM
- TGI [23]: 58.2 µM
- TGI [24]: > 100 µM
- TGI [25]: > 100 µM
- TGI [26]: > 100 µM
- TGI [27]: > 100 µM
- TGI [28]: > 100 µM
- TGI [29]: > 100 µM
- TGI [31]: 42 µM
- TGI [33]: > 100 µM
- TGI [35]: > 100 µM
- TGI [36]: 32 µM
- TGI [37]: > 100 µM
- TGI [38]: > 100 µM
- TGI [39]: 76.2 µM
- TGI [40]: > 100 µM
- TGI [41]: 12.8 µM
- TGI [59]: 81.3 µM
- TGI [43]: 45.4 µM
- TGI [44]: > 100 µM
- TGI [45]: 63.4 µM
- TGI [46]: > 100 µM
- TGI [48]: > 100 µM
- TGI [49]: > 100 µM
- TGI [50]: > 100 µM
- TGI [51]: > 100 µM
- TGI [52]: 69.6 µM
- TGI [53]: 93.3 µM
- TGI [54]: 65.8 µM
- TGI [55]: 33.3 µM
- TGI [56]: > 100 µM
- TGI [57]: > 100 µM
